We go through eleven molecules from patent publication US11173145B2, “Compounds useful as inhibitors of indoleamine 2,3-dioxygenase and/or tryptophan dioxygenase” (Board of Regents, The University of Texas System, priority 2017, dated 2021).

Experiment [1] deals with T1, mouse IDO1 (Mus musculus, UniProt P28776).
T1 construct: The murine PANC02 pancreatic ductal adenocarcinoma cell line was routinely maintained in DMEM media; endogenous in cells; host or cells: PANC02 murine pancreatic ductal adenocarcinoma cells, induced with mouse IFNgamma
Kind of experiment: Mouse IDO1 cell-based assay (PANC02 cells, mouse IFNgamma-induced, N-formylkynurenine/L-tryptophan by RFMS). The conditions noted are these: 30 ng/mL mouse IFNgamma, 48 hours.

The target of experiment [2] is T2, IDO1 (Homo sapiens, UniProt P14902).
T2 construct: endogenous in cells; host or cells: HeLa cells (ATCC), IFNgamma-induced
Kind of experiment: IDO1 cell-based assay (HeLa cells, IFNgamma-induced, N-formylkynurenine/L-tryptophan by RFMS). As to conditions: 10 ng/mL IFNgamma, 24 hours. In a few lines: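 HeLa cells stimulated with 10 ng/mL IFNgamma and exposed to compound (0.5% DMSO final) for 24 h at 37 °C. Conditioned media deproteinized, then N-formylkynurenine and L-tryptophan quantified by RapidFire MS with deuterated tryptophan internal standard; IC50 by curve fitting. Viability checked by CellTiter-Glo.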

T1 sequence (P28776 whole entry): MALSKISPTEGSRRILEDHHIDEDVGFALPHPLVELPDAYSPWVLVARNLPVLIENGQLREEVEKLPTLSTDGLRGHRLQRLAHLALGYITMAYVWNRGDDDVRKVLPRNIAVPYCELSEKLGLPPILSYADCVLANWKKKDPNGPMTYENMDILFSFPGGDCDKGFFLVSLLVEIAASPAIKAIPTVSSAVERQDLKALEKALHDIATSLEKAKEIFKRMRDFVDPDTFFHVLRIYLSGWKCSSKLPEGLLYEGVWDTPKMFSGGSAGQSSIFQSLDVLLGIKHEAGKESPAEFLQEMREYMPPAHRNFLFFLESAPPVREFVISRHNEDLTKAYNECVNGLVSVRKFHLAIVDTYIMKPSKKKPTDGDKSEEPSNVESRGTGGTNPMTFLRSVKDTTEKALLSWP
T2 sequence (P14902 whole entry): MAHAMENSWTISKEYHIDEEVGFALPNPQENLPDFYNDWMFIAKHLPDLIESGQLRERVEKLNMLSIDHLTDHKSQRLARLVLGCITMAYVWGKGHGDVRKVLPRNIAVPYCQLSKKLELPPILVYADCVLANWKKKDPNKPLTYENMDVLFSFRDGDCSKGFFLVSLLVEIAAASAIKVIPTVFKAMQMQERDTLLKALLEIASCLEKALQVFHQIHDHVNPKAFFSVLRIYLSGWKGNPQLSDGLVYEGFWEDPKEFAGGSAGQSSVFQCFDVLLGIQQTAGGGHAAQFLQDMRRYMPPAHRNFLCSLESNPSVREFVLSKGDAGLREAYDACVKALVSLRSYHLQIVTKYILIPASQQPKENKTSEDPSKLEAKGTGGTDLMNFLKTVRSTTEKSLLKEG

Take `O=C(NCc1ccc(Cl)cc1)[C@@H]1[C@@H]2CN(c3ncnc4ccc(F)cc34)C[C@@H]21` [Compound 249, (1R,5S,6s)-N-(4-chlorobenzyl)-3-(6-fluoroquinazolin-4-yl)-3-azabicyclo[3.1.0]hexane-6-carboxamide]: the IC50 in experiment [1] is greater than 5 µM; in experiment [2], greater than 5000 nM.
As for `O=C(Nc1ccc(Cl)cc1)[C@@H]1[C@@H]2CN(c3ncnc4ccc(F)cc34)C[C@@H]21` [Compound 250, (1R,5S,6s)-N-(4-chlorophenyl)-3-(6-fluoroquinazolin-4-yl)-3-azabicyclo[3.1.0]hexane-6-carboxamide], the IC50 in experiment [1] was greater than 5 µM; in experiment [2], greater than 5000 nM.
As to `O=C(NCc1ccc(Cl)cc1)[C@H]1[C@@H]2CN(c3ncnc4ccc(F)cc34)C[C@@H]21` [Compound 251, (1R,5S,6r)-N-(4-chlorobenzyl)-3-(6-fluoroquinazolin-4-yl)-3-azabicyclo[3.1.0]hexane-6-carboxamide], the IC50 is greater than 5 µM in experiment [1] and greater than 5000 nM in experiment [2].
As for `O=C(Nc1ccc(Cl)cc1)[C@H]1[C@@H]2CN(c3ncnc4ccc(F)cc34)C[C@@H]21` [Compound 252, (1R,5S,6r)-N-(4-chlorophenyl)-3-(6-fluoroquinazolin-4-yl)-3-azabicyclo[3.1.0]hexane-6-carboxamide], the IC50 in experiment [1] was 2 to 5 µM; in experiment [2], greater than 5000 nM.
As to `CCC(NC(=O)c1ccc(Cl)cc1)[C@H]1[C@@H]2C[C@@H](Oc3ncnc4cc(Cl)ccc34)C[C@@H]21` (stereo partly drawn) [Compound 253, 4-chloro-N-(1-((1R,3s,5S,6r)-3-((7-chloroquinazolin-4-yl)oxy)bicyclo[3.1.0]hexan-6-yl)propyl)benzamide], the IC50 in experiment [1] is 2 to 5 µM; in experiment [2], less than 200 nM.
Turning to `CCC(NC(=O)c1ccc(Cl)cc1)[C@@H]1[C@H]2C=C(c3cncc(C(F)(F)F)c3)C[C@H]21` (stereo partly drawn) [Compound 254, 4-chloro-N-(1-((1R,5R,6S)-3-(5-(trifluoromethyl)pyridin-3-yl)bicyclo[3.1.0]hex-2-en-6-yl)propyl)benzamide], the IC50 in experiment [1] was less than 0.5 µM; in experiment [2] it was less than 200 nM.
With `CCC(NC(=O)c1ccc(Cl)cc1)[C@@H]1[C@H]2C=C(c3ncnc4cc(F)ccc34)C[C@H]21` (stereo partly drawn) [Compound 255, 4-chloro-N-(1-((1R,5R,6S)-3-(7-fluoroquinazolin-4-yl)bicyclo[3.1.0]hex-2-en-6-yl)propyl)benzamide], the IC50 in experiment [1] fell in the range of 2 to 5 µM; in experiment [2], 200 to 2000 nM.
Regarding `CCC(NC(=O)c1ccc(Cl)cc1)[C@H]1[C@@H]2C[C@@H](n3cc(NC(C)=O)nn3)C[C@@H]21` (stereo partly drawn) [Compound 256, N-(1-((1R,3s,5S,6r)-3-(4-acetamido-1H-1,2,3-triazol-1-yl)bicyclo[3.1.0]hexan-6-yl)propyl)-4-chlorobenzamide], the IC50 in experiment [1] was greater than 5 µM; in experiment [2] it was greater than 5000 nM.
In the case of `CCC(NC(=O)c1ccc(Cl)cc1)[C@H]1[C@@H]2C[C@@H](n3cc(C4CN(C(C)=O)C4)nn3)C[C@@H]21` (stereo partly drawn) [Compound 257, N-(1-((1R,3s,5S,6r)-3-(4-(1-acetylazetidin-3-yl)-1H-1,2,3-triazol-1-yl)bicyclo[3.1.0]hexan-6-yl)propyl)-4-chlorobenzamide], the IC50 in experiment [1] was greater than 5 µM; in experiment [2] it was greater than 5000 nM.
Consider `CCC(NC(=O)c1ccc(Cl)cc1)[C@H]1[C@@H]2C[C@@H](n3ncnc3C3CC3)C[C@@H]21` (stereo partly drawn) [Compound 258, 4-chloro-N-(1-((1R,3s,5S,6r)-3-(5-cyclopropyl-1H-1,2,4-triazol-1-yl)bicyclo[3.1.0]hexan-6-yl)propyl)benzamide], for which the IC50 is 2 to 5 µM in experiment [1] and 200 to 2000 nM in experiment [2].
With `CCC(NC(=O)c1ccc(Cl)cc1)[C@H]1[C@@H]2C[C@@H](n3cnc(C4CC4)c3)C[C@@H]21` (stereo partly drawn) [Compound 261, 4-chloro-N-(1-((1R,3s, 5S, 6r)-3-(4-cyclopropyl-1H-imidazol-1-yl)bicyclo[3.1.0]hexan-6-yl)propyl)benzamide], the IC50 in experiment [1] was 0.5 to 2 µM; in experiment [2], less than 200 nM.

In general, IC50 refers to the midpoint of a concentration-inhibition curve.
